Results from ChEMBL document CHEMBL1201862, “PubChem BioAssay data set” (2004).
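Five concentrations, 48 hours, 96-well plates. GI50 is the concentration that inhibits growth by half.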 Active and inactive are the calls of the source. No stated cut-off is given here; in the data, active = GI50 up to about 1.1 µM and inactive = higher.

Experiments:
Test in all cases: growth of human tumour cells (NCI), 48 h
A498 = system: A498
NCI-H23 = system: NCI-H23
U-251 = system: U-251
NCI-H460 = system: NCI-H460
KM12 = system: KM12
SK-MEL-5 = system: SK-MEL-5
UACC-62 = system: UACC-62
MOLT-4 = system: MOLT-4
SN12C = system: SN12C
A549 = system: A549
OVCAR-3 = system: OVCAR-3
BT-549 = system: BT-549
IGROV-1 = system: IGROV-1
K562 = system: K562
ACHN = system: ACHN
RPMI-8226 = system: RPMI-8226
SR = system: SR
SF-268 = system: SF-268
M14 = system: M14
SK-OV-3 = system: SK-OV-3

SMILES | GI50 (A498) | GI50 (NCI-H23) | GI50 (U-251) | GI50 (NCI-H460) | GI50 (KM12) | GI50 (SK-MEL-5) | GI50 (UACC-62) | GI50 (MOLT-4) | GI50 (SN12C) | GI50 (A549) | GI50 (OVCAR-3) | GI50 (BT-549) | GI50 (IGROV-1) | GI50 (K562) | GI50 (ACHN) | GI50 (RPMI-8226) | GI50 (SR) | GI50 (SF-268) | GI50 (M14) | GI50 (SK-OV-3)
O=C1NC(c2ccccc2Cl)Nc2ccccc21 (stereo not given) | 30.8 µM (inactive) | 34.2 µM (inactive) | 10.4 µM (inactive) | 13.9 µM (inactive) | 3.76 µM (inactive) | 5.57 µM (inactive) | 7.14 µM (inactive) | 8.77 µM (inactive) | 23.3 µM (inactive) | 32.5 µM (inactive) | 7.38 µM (inactive) | 28.4 µM (inactive) | 22.5 µM (inactive) | 3.77 µM (inactive) | 29.5 µM (inactive) | 7.73 µM (inactive) | 4.07 µM (inactive) | 59.7 µM (inactive) | 10.5 µM (inactive) | 31 µM (inactive)
O=C(NNC(=S)Nc1ccccc1)c1cc(-c2ccccc2)nc2ccccc12 | 11.5 µM (inactive) | 16.3 µM (inactive) | 12.2 µM (inactive) | 20.7 µM (inactive) | 20.7 µM (inactive) | 13.2 µM (inactive) | 15.6 µM (inactive) | 11.4 µM (inactive) | 20.8 µM (inactive) | 16.7 µM (inactive) | 11.1 µM (inactive) | 21.6 µM (inactive) | 26.7 µM (inactive) | 17.4 µM (inactive) | 27.5 µM (inactive) | 6.56 µM (inactive) | 13.6 µM (inactive) | 22.9 µM (inactive) | 14.9 µM (inactive) | 26.8 µM (inactive)
CC(C)[S+]1C2=C(CC(C)(C)CC2=O)[N-]c2ccccc21 (stereo not given) | > 100 µM (inactive) | > 100 µM (inactive) | > 100 µM (inactive) | > 100 µM (inactive) | > 100 µM (inactive) | > 100 µM (inactive) | > 100 µM (inactive) | > 100 µM (inactive) | > 100 µM (inactive) | > 100 µM (inactive) | > 100 µM (inactive) | > 100 µM (inactive) | > 100 µM (inactive) | > 100 µM (inactive) | > 100 µM (inactive) | > 100 µM (inactive) | > 100 µM (inactive) | > 100 µM (inactive) | > 100 µM (inactive) | > 100 µM (inactive)
NC(=O)N(O)c1cccc(Br)c1 | > 100 µM (inactive) | > 100 µM (inactive) | > 100 µM (inactive) | > 100 µM (inactive) | > 100 µM (inactive) | > 100 µM (inactive) | > 100 µM (inactive) | > 100 µM (inactive) | > 100 µM (inactive) | > 100 µM (inactive) | > 100 µM (inactive) | > 100 µM (inactive) | > 100 µM (inactive) | > 100 µM (inactive) | > 100 µM (inactive) | > 100 µM (inactive) | > 100 µM (inactive) | > 100 µM (inactive) | > 100 µM (inactive) | > 100 µM (inactive)
Brc1ccc2[nH]cc(-c3csc(-c4c[nH]c5ccc(Br)cc45)n3)c2c1 | 2.13 µM (inactive) | 2.27 µM (inactive) | 1.82 µM (inactive) | 1.73 µM (inactive) | 1.47 µM (inactive) | 1.64 µM (inactive) | 1.85 µM (inactive) | 1.63 µM (inactive) | 2.83 µM (inactive) | 2.69 µM (inactive) | 2.45 µM (inactive) | 5.75 µM (inactive) | 1.58 µM (inactive) | 1.77 µM (inactive) | 1.93 µM (inactive) | 1.64 µM (inactive) | 1.63 µM (inactive) | 2.05 µM (inactive) | 1.53 µM (inactive) | 2.5 µM (inactive)
CN1CCN(c2c(Cl)cc(Cl)c3[nH]c4ccccc4c(=O)c23)CC1 | 3.96 µM (inactive) | 8.87 µM (inactive) | 5.82 µM (inactive) | 11.2 µM (inactive) | 6.11 µM (inactive) | 9.71 µM (inactive) | 4.68 µM (inactive) | 1.18 µM (inactive) | 6.12 µM (inactive) | 5.56 µM (inactive) | 10.2 µM (inactive) | 16.1 µM (inactive) | 4.46 µM (inactive) | 3.66 µM (inactive) | 2.9 µM (inactive) | 3.1 µM (inactive) | 0.301 µM (active) | 2.86 µM (inactive) | 6.01 µM (inactive) | 11.1 µM (inactive)
COc1ccc(-c2cc(-c3ccccc3)[nH]c(=S)c2C#N)cc1 | 15.3 µM (inactive) | 21.8 µM (inactive) | 25.8 µM (inactive) | 25.5 µM (inactive) | 45.4 µM (inactive) | 16 µM (inactive) | 19 µM (inactive) | 17.4 µM (inactive) | 41.2 µM (inactive) | 18.8 µM (inactive) | 11.9 µM (inactive) | 39.6 µM (inactive) | 26.4 µM (inactive) | 22.8 µM (inactive) | 33 µM (inactive) | 20.7 µM (inactive) | 32.6 µM (inactive) | 38.2 µM (inactive) | 25.4 µM (inactive) | 30.8 µM (inactive)
N#CC12CC=C(c3ccccc3)N=C1NC(c1ccccc1)=CC2 (stereo not given) | 23.2 µM (inactive) | 84.9 µM (inactive) | 85.1 µM (inactive) | 57.5 µM (inactive) | 51.5 µM (inactive) | 19 µM (inactive) | 86.7 µM (inactive) | 21.8 µM (inactive) | > 100 µM (inactive) | 54 µM (inactive) | > 100 µM (inactive) | 40.6 µM (inactive) | > 100 µM (inactive) | 31.6 µM (inactive) | 57.4 µM (inactive) | 28.8 µM (inactive) | 29.9 µM (inactive) | > 100 µM (inactive) | 42.1 µM (inactive) | > 100 µM (inactive)
COc1ccccc1/C=C1\CCC(CN2CCOCC2)C1=O (stereo not given) | 18.2 µM (inactive) | 20.3 µM (inactive) | 18.7 µM (inactive) | 18.2 µM (inactive) | 3.71 µM (inactive) | 15 µM (inactive) | 16.4 µM (inactive) | 2.32 µM (inactive) | 7.5 µM (inactive) | 21.9 µM (inactive) | 5.57 µM (inactive) | 12.6 µM (inactive) | 12.5 µM (inactive) | 2.81 µM (inactive) | 16.1 µM (inactive) | 1.32 µM (inactive) | 1.74 µM (inactive) | 16 µM (inactive) | 6.15 µM (inactive) | > 43.7 µM (inactive)
C=CCSC1=N/C(=C\c2ccccc2)C(=O)N1CC=C | 23.1 µM (inactive) | 56 µM (inactive) | 37.7 µM (inactive) | 41.6 µM (inactive) | 38.8 µM (inactive) | 17.8 µM (inactive) | 33.3 µM (inactive) | 2.7 µM (inactive) | 36.2 µM (inactive) | 44.6 µM (inactive) | > 47.2 µM (inactive) | 40.7 µM (inactive) | > 100 µM (inactive) | 3.48 µM (inactive) | 41.8 µM (inactive) | 24.7 µM (inactive) | 22.7 µM (inactive) | 6.85 µM (inactive) | 67.9 µM (inactive) | > 71.6 µM (inactive)
Brc1ccc2[nH]cc(-c3csc(-c4c[nH]c5ccccc45)n3)c2c1 | 5.19 µM (inactive) | 2.39 µM (inactive) | 2.98 µM (inactive) | 2.61 µM (inactive) | 2.3 µM (inactive) | 2.24 µM (inactive) | 5.5 µM (inactive) | 2.05 µM (inactive) | 3.66 µM (inactive) | 3.67 µM (inactive) | 3.01 µM (inactive) | 5.7 µM (inactive) | 2.2 µM (inactive) | 3.03 µM (inactive) | 5.5 µM (inactive) | 3.08 µM (inactive) | 3.39 µM (inactive) | 2.66 µM (inactive) | 1.98 µM (inactive) | 7.52 µM (inactive)
CN(C)CCCn1c2ccccc2c2cnccc21 | 38.5 µM (inactive) | 39.5 µM (inactive) | 39.1 µM (inactive) | 23.9 µM (inactive) | 43.2 µM (inactive) | 19.7 µM (inactive) | 40.4 µM (inactive) | 24.4 µM (inactive) | 17.1 µM (inactive) | 33.6 µM (inactive) | 42.9 µM (inactive) | 80.4 µM (inactive) | 64.7 µM (inactive) | 26.2 µM (inactive) | 33.8 µM (inactive) | 26.7 µM (inactive) | 19.2 µM (inactive) | 50.7 µM (inactive) | 16.6 µM (inactive) | 66.2 µM (inactive)
Cc1cccc2c(N)c3cccc(C(=O)NCCCNCCN)c3nc12 | 11.4 µM (inactive) | 1.01 µM (active) | 1.3 µM (inactive) | 1.1 µM (active) | 4.8 µM (inactive) | 7.11 µM (inactive) | 4.38 µM (inactive) | 0.155 µM (active) | 0.121 µM (active) | 0.596 µM (active) | 20.2 µM (inactive) | 14.6 µM (inactive) | 4.83 µM (inactive) | 12.9 µM (inactive) | 10.5 µM (inactive) | 7.08 µM (inactive) | 2.04 µM (inactive) | 0.124 µM (active) | 14.1 µM (inactive) | 23.2 µM (inactive)
CN1C(=O)c2c(c3c4ccccc4n(C4OC(CO)C(O)C(O)C4O)c3c3[nH]c4ccccc4c23)C1=O (stereo not given) | 1.45 µM (inactive) | 2.59 µM (inactive) | 0.681 µM (active) | 3.1 µM (inactive) | 3.85 µM (inactive) | 1.36 µM (inactive) | 1.46 µM (inactive) | 0.624 µM (active) | 2.82 µM (inactive) | 11.8 µM (inactive) | 2.02 µM (inactive) | 4.99 µM (inactive) | 0.9 µM (active) | 0.736 µM (active) | 2.14 µM (inactive) | 16.1 µM (inactive) | 0.164 µM (active) | 0.541 µM (active) | 2.34 µM (inactive) | 2.92 µM (inactive)
